Experimental data reported in patent US20100152434A1, “Protein Kinase-binding Nucleosides and Associated Methods” (priority 2007, published 2010).
Where two headings read alike, the source gives them in different places.

What was measured:
[1] = tested on: RPMI-8226
[2] = tested on: A549/ATCC
[3] = tested on: EKVX
[4] = tested on: NCI-H226
[5] = tested on: NCI-H522
[6] = tested on: HCT-15
[7] = tested on: SF-268
[8] = tested on: SK-MEL-2
[9] = tested on: OVCAR-4
[10] = tested on: ACHN
[11] = tested on: SN12C
[12] = tested on: T-47D
[13] = tested on: RPMI-8226; assay: cells; details: Homo sapiens, RPMI-8226, 48 h
[14] = tested on: HOP-62; assay: cells; details: Homo sapiens, HOP-62, 48 h
[15] = tested on: NCI-H226; assay: cells; details: Homo sapiens, NCI-H226, 48 h
[16] = tested on: NCI-H522; assay: cells; details: Homo sapiens, NCI-H522, 48 h
[17] = tested on: HCC-2998; assay: cells; details: Homo sapiens, HCC 2998, 48 h
[18] = tested on: HCT-116; assay: cells; details: Homo sapiens, HCT-116, 48 h
[19] = tested on: HCT-15; assay: cells; details: Homo sapiens, HCT-15, 48 h
[20] = tested on: M14; assay: cells; details: Homo sapiens, M14, 48 h
[21] = tested on: UACC-257; assay: cells; details: Homo sapiens, UACC-257, 48 h
[22] = tested on: UACC-62; assay: cells; details: Homo sapiens, UACC-62, 48 h
[23] = tested on: 788-0; assay: cells; details: Homo sapiens, 48 h
[24] = tested on: ACHN; assay: cells; details: Homo sapiens, 48 h
[25] = tested on: UO-31; assay: cells; details: Homo sapiens, UO-31, 48 h
[26] = tested on: MCF7; assay: cells; details: Homo sapiens, MCF7, 48 h
[27] = tested on: MDA-MB-231/ATCC; assay: cells; details: Homo sapiens, MDA-MB-231, 48 h
[28] = Log10 Concentration −4.0, Molar
[29] = Log10 Concentration −5.0, Molar
[30] = Log10 Concentration −6.0, Molar
[31] = Log10 Concentration −7.0, Molar
[32] = Log10 Concentration −8.0, Molar

CCOC(=O)C[C@@H]1C(O[Si](C)(C)C(C)(C)C)[C@H](n2cnc3c(NC(=O)Nc4ccccc4)ncnc32)O[C@@H]1CNC(=O)NC (some centres unmarked) [Compound 10]
TGI ([1]; 48 h): 4.57E−6 Molar | Percent Growth [1, 28]: −57% | Percent Growth [1, 29]: −27% | Percent Growth [1, 30]: 53% | Percent Growth [1, 31]: 75% | Percent Growth [1, 32]: 77% | TGI ([2]; 48 h): 1.92E−5 Molar | Percent Growth [2, 28]: −58% | Percent Growth [2, 29]: 23% | Percent Growth [2, 30]: 94% | Percent Growth [2, 31]: 103% | Percent Growth [2, 32]: 102% | TGI ([3]; 48 h): >1.00E−4 Molar | Percent Growth [3, 28]: 42% | Percent Growth [3, 29]: 53% | Percent Growth [3, 30]: 91% | Percent Growth [3, 31]: 90% | Percent Growth [3, 32]: 92% | TGI ([4]; 48 h): >1.00E−4 Molar | Percent Growth [4, 28]: 55% | Percent Growth [4, 29]: 71% | Percent Growth [4, 30]: 102% | Percent Growth [4, 31]: 105% | Percent Growth [4, 32]: 101% | TGI ([5]; 48 h): 8.57E−5 Molar | Percent Growth [5, 28]: −2% | Percent Growth [5, 29]: 32% | Percent Growth [5, 30]: 83% | Percent Growth [5, 31]: 85% | Percent Growth [5, 32]: 89% | TGI ([6]; 48 h): >1.00E−4 Molar | Percent Growth [6, 28]: 43% | Percent Growth [6, 29]: 47% | Percent Growth [6, 30]: 94% | Percent Growth [6, 31]: 96% | Percent Growth [6, 32]: 99% | TGI ([7]; 48 h): 2.70E−5 Molar | Percent Growth [7, 28]: −53% | Percent Growth [7, 29]: 40% | Percent Growth [7, 30]: 93% | Percent Growth [7, 31]: 103% | Percent Growth [7, 32]: 102% | TGI ([8]; 48 h): 3.31E−5 Molar | Percent Growth [8, 28]: −30% | Percent Growth [8, 29]: 32% | Percent Growth [8, 30]: 99% | Percent Growth [8, 31]: 94% | Percent Growth [8, 32]: 102% | TGI ([9]; 48 h): >1.00E−4 Molar | Percent Growth [9, 28]: 16% | Percent Growth [9, 29]: 53% | Percent Growth [9, 30]: 95% | Percent Growth [9, 31]: 103% | Percent Growth [9, 32]: 98% | TGI ([10]; 48 h): >1.00E−4 Molar | Percent Growth [10, 28]: 35% | Percent Growth [10, 29]: 47% | Percent Growth [10, 30]: 96% | Percent Growth [10, 31]: 97% | Percent Growth [10, 32]: 107% | TGI ([11]; 48 h): >1.00E−4 Molar | Percent Growth [11, 28]: 11% | Percent Growth [11, 29]: 48% | Percent Growth [11, 30]: 103% | Percent Growth [11, 31]: 101% | Percent Growth [11, 32]: 101% | TGI ([12]; 48 h): >1.00E−4 Molar | Percent Growth [12, 28]: 13% | Percent Growth [12, 29]: 16% | Percent Growth [12, 30]: 73% | Percent Growth [12, 31]: 89% | Percent Growth [12, 32]: 91% | GI50 [13]: 1.09 µM | CC50 ([13]; read-out: LC50): 59 µM | GI50 [14]: 8.96 µM | CC50 ([14]; read-out: LC50): 73.1 µM | GI50 [15]: > 100 µM | CC50 ([15]; read-out: LC50): > 100 µM | GI50 [16]: 4.36 µM | CC50 ([16]; read-out: LC50): > 100 µM | GI50 [17]: > 100 µM | CC50 ([17]; read-out: LC50): > 100 µM | GI50 [18]: 3.2 µM | CC50 ([18]; read-out: LC50): 45.6 µM | GI50 [19]: 8.5 µM | CC50 ([19]; read-out: LC50): > 100 µM | GI50 [20]: 2.51 µM | CC50 ([20]; read-out: LC50): 78.6 µM | GI50 [21]: 5.68 µM | CC50 ([21]; read-out: LC50): > 100 µM | GI50 [22]: > 100 µM | CC50 ([22]; read-out: LC50): > 100 µM | GI50 [23]: 2 µM | GI50 [24]: 8.55 µM | CC50 ([24]; read-out: LC50): > 100 µM | GI50 [25]: 12.1 µM | CC50 ([25]; read-out: LC50): 71.7 µM | GI50 [26]: 3.42 µM | CC50 ([26]; read-out: LC50): > 100 µM | GI50 [27]: 3.96 µM | CC50 ([27]; read-out: LC50): > 100 µM
